Results: patent US20120128646A1, “METHODS AND COMPOSITIONS FOR THE TREATMENT OF AUTOIMMUNE DISEASE” (priority 2009, published 2012)
Entries after “also recorded” stand apart in the source; their conditions may differ. Where no end group is shown, it is not given here.

Tests used:
T cell clone BDC-2.5 = assay: IFNγ production by T cell clone in antigen assay (ELISA); assay type: cell-based, NOD mouse; conditions: peptide or preparation as antigen
Description: The T cell clones are maintained in culture by periodic re-stimulation with irradiated NOD splenocytes and islet cells or β-membrane. To assay for antigen, resting responder T cells (i.e., for example, the cells at the end of the two-week restimulation period) are co-cultured for 24 hr with elicited peritoneal macrophages (PEC) as APC and either a test sample or control antigen. Control antigen will be in the form of islet cells or the whole-cell membrane fraction (i.e., for example, a β-membrane fraction). As described above, unlysed β-membrane is stored in aliquots at −80° C. for this purpose. Negative controls include responder cells alone and responders plus APC.
At the end of the culture period, supernatants are collected from the cultures and IFNγ production is measured by ELISA. Wells positive for IFNγ are indicative of T cells responding to antigen; the amount of cytokine produced is calculated from a standard curve and is directly proportional to the amount of antigen present.
Antigenicity of islet cells, cellular and biochemical fractions, peptides, or insect cells expressing IA^g7-peptide constructs, was assessed through responses of T cell clones or hybridomas made by fusing T cell clones to the TCR^− version of T cell lymphoma, BW5147. White et al., “Two better cell lines for making hybridomas expressing specific T cell receptors” J Immunol 143:1822-1825 (1989). T cell clone cultures typically contained 2×10^4 responder T cells, 2.5×10^4 NOD peritoneal exudate cells (PEC) as APC, and antigen (SEC/IEX fractions, peptides, islet cells); all assays were performed with β-Mem as a positive control. IFNγ was measured by ELISA of culture supernatants. For cultures with T cell hybridomas, antigen/MHC activation was assessed by IL-2 production measured by a bioassay using the HT-2 T cell line. Walker et al., “Antigenspecific. I region-restricted interactions in vitro between tumor cell lines and T cell hybridomas” J Immunol 128:2164-2169 (1982). Synthetic peptides were either produced in the Molecular Resource Center at National Jewish Health or obtained from CHI Scientific, Maynard, Mass.

soluble IA^g7 = assay: Peptide binding to IA^g7: competition with biotinylated HEL peptide; set-up: species or system NOD mouse; conditions: competition with biotinylated pHEL 11 μM, pH 5.6, overnight
Description: FIG. 15B: A series of ChgA peptides tested for their ability to compete with a biotinylated HEL peptide for binding to soluble IA^g7. pS3-positive control peptide. IE^k moth cytochrome c-negative control peptide. N=2. Y axis: Percent of IA^g7-bound biotinylated HEL peptide as compared to IE^k. X axis: Log concentration of inhibitor peptide.
In order to confirm the unique binding register of the WE14 peptide, a series of peptides comprising N-terminal extensions and/or C-terminal deletions of WE14 were evaluated for their ability to stimulate the BDC-2.5 T cell clone (FIG. 6a) or to bind to IA^g7. See, FIG. 15A. […] See, FIG. 15B. Further, a pS3 mimotope was used as the positive control peptide and an irrelevant peptide from moth cytochrome c, pMCC, was the negative control peptide. The data were analyzed to determine the stimulatory or binding capacity of the peptides relative to WE14. See, FIG. 15C.
Soluble IA^g7 with covalently attached pHEL was treated with thrombin to cleave the linker attaching the peptide to the IA^g7 β chain. Kozono et al., “Production of soluble MHC class II proteins with covalently bound single peptides” Nature 369:151-154 (1994). Samples (0.5 μg) were incubated with a soluble biotinylated version of pHEL, Biotin-GGGMKRHGLDNYRGYSL (SEQ ID NO: 56) (11 μM), either alone or in the presence of various concentrations of potential competitors peptides, in 15 μL of pH 5.6 buffer overnight at room temperature. The sample was diluted to 100 μL of PBS in a well of a 96-well ELISA plate coated with an anti-IA^g7 monoclonal antibody, OX-6 (BD Pharmaceuticals). The captured IA^g7 was washed several times with PBS and the bound bio-pHEL detected with alkaline phosphatase coupled Extravadin (Sigma) and […].

[1] = test system: BDC-10.1 T cell hybridoma; assay: CD69 upregulation on T cell hybridoma co-cultured with insect cells infected with linked peptide I-A^g7 viruses; assay type: cell-based, mouse; conditions: hybridomas 3 × 10^5/mL, 3 hrs co-culture with infected insect cells 1 × 10^5/mL
Experimental: (§1) FIG. 13F: The p3 glycine of pS3 was mutated to other amino acids. The effect of the mutations on early activation of the three BDC hybridomas was assessed by CD69 induction. The results are shown as the percent of cells expressing CD69 relative to those activated with the unmutated pS3 peptide. […] The sequences of the pS3 and ChgA peptide are also shown, highlighting the amino acids at the p3 position.
(§2) A mutational analysis was performed of 3 L mimotope at positions 2 and 3 followed by their respective ability to stimulate BDC-2.5, BDC-10.1 and BDC-5.10.3 hybridomas with 3 L mimotope substituted peptides. See, Table 3.

BDC-2.5 T cell hybridoma = assay: as above; assay type: cell-based, mouse; conditions: hybridomas 3 × 10^5/mL, 3 hrs co-culture with infected insect cells 1 × 10^5/mL
Experimental: as §1, §2

[2] = test system: BDC-5.10.3 T cell hybridoma; assay: as above; assay type: cell-based, mouse; conditions: hybridomas 3 × 10^5/mL, 3 hrs co-culture with infected insect cells 1 × 10^5/mL
Experimental: as §1, §2

Row | Substance | Stimulation of T cell clone BDC-2.5 (IFNγ response), result in words (T cell clone BDC-2.5) | IA^g7 binding, result in words (soluble IA^g7) | Stimulation BDC-10.1 (upregulation of CD69) [1] | Stimulation BDC-2.5 (upregulation of CD69) (BDC-2.5 T cell hybridoma) | Stimulation BDC-5.1.3 (upregulation of CD69) [2]
1 | EDKRWSRMDQLAKELTAE [EE18, WE14 extended by 4 amino acids (EDKR)] | virtually eliminated | no effect | – | – | –
2 | Enz: WE14 after transglutaminase modification (WSRMDQLAKELTAE; also: transglutaminase modification, site not given here) | highly antigenic | – | – | – | –
3 | QWEDKRWSRMDQA | unable to stimulate | – | – | – | –
4 | SRFGLWVRME | – | – | + (A positive response (+) indicates >40% of the hybridoma population stained above a background staining of 1% for unstimulated or of the same T cell hybridoma) | + (A positive response (+) indicates >40% of the hybridoma population stained above a background staining of 1% for unstimulated or of the same T cell hybridoma) | –
5 | SRLALWVRME | – | – | + (A positive response (+) indicates >40% of the hybridoma population stained above a background staining of 1% for unstimulated or of the same T cell hybridoma) | + (A positive response (+) indicates >40% of the hybridoma population stained above a background staining of 1% for unstimulated or of the same T cell hybridoma) | + (A positive response (+) indicates >40% of the hybridoma population stained above a background staining of 1% for unstimulated or of the same T cell hybridoma)
6 | SRLCLWVRME | – | – | – | + (A positive response (+) indicates >40% of the hybridoma population stained above a background staining of 1% for unstimulated or of the same T cell hybridoma) | + (A positive response (+) indicates >40% of the hybridoma population stained above a background staining of 1% for unstimulated or of the same T cell hybridoma)
7 | SRLGLWVRME | – | – | + (A positive response (+) indicates >40% of the hybridoma population stained above a background staining of 1% for unstimulated or of the same T cell hybridoma) | + (A positive response (+) indicates >40% of the hybridoma population stained above a background staining of 1% for unstimulated or of the same T cell hybridoma) | + (A positive response (+) indicates >40% of the hybridoma population stained above a background staining of 1% for unstimulated or of the same T cell hybridoma)
8 | SRLHLWVRME | – | – | + (A positive response (+) indicates >40% of the hybridoma population stained above a background staining of 1% for unstimulated or of the same T cell hybridoma) | – | + (A positive response (+) indicates >40% of the hybridoma population stained above a background staining of 1% for unstimulated or of the same T cell hybridoma)
9 | SRLMLWVRME | – | – | + (A positive response (+) indicates >40% of the hybridoma population stained above a background staining of 1% for unstimulated or of the same T cell hybridoma) | – | + (A positive response (+) indicates >40% of the hybridoma population stained above a background staining of 1% for unstimulated or of the same T cell hybridoma)
10 | SRLPLWVRME | – | – | + (A positive response (+) indicates >40% of the hybridoma population stained above a background staining of 1% for unstimulated or of the same T cell hybridoma) | + (A positive response (+) indicates >40% of the hybridoma population stained above a background staining of 1% for unstimulated or of the same T cell hybridoma) | + (A positive response (+) indicates >40% of the hybridoma population stained above a background staining of 1% for unstimulated or of the same T cell hybridoma)
11 | SRLRLWVRME | – | – | + (A positive response (+) indicates >40% of the hybridoma population stained above a background staining of 1% for unstimulated or of the same T cell hybridoma) | + (A positive response (+) indicates >40% of the hybridoma population stained above a background staining of 1% for unstimulated or of the same T cell hybridoma) | + (A positive response (+) indicates >40% of the hybridoma population stained above a background staining of 1% for unstimulated or of the same T cell hybridoma)
12 | SRLSLWVRME | – | – | + (A positive response (+) indicates >40% of the hybridoma population stained above a background staining of 1% for unstimulated or of the same T cell hybridoma) | + (A positive response (+) indicates >40% of the hybridoma population stained above a background staining of 1% for unstimulated or of the same T cell hybridoma) | + (A positive response (+) indicates >40% of the hybridoma population stained above a background staining of 1% for unstimulated or of the same T cell hybridoma)
13 | SRLTLWVRME | – | – | + (A positive response (+) indicates >40% of the hybridoma population stained above a background staining of 1% for unstimulated or of the same T cell hybridoma) | + (A positive response (+) indicates >40% of the hybridoma population stained above a background staining of 1% for unstimulated or of the same T cell hybridoma) | + (A positive response (+) indicates >40% of the hybridoma population stained above a background staining of 1% for unstimulated or of the same T cell hybridoma)
14 | SRLVLWVRME | – | – | + (A positive response (+) indicates >40% of the hybridoma population stained above a background staining of 1% for unstimulated or of the same T cell hybridoma) | – | + (A positive response (+) indicates >40% of the hybridoma population stained above a background staining of 1% for unstimulated or of the same T cell hybridoma)
15 | SRLYLWVRME | – | – | + (A positive response (+) indicates >40% of the hybridoma population stained above a background staining of 1% for unstimulated or of the same T cell hybridoma) | – | + (A positive response (+) indicates >40% of the hybridoma population stained above a background staining of 1% for unstimulated or of the same T cell hybridoma)
16 | WA8: sequential C-terminal truncation of WE14 (WSRMDQLA) | decreasing stimulatory activity | – | – | – | –
17 | WL11: WE14 truncated by 3 C-terminal amino acids (WSRMDQLAKEL) | decreasing stimulatory activity | indistinguishable from the negative control peptide | – | – | –
18 | WSRMD [WD5, shortest C-terminal truncation of WE14, motif only] | decreasing stimulatory activity; also recorded: lacked any activity at all | – | – | – | –
